Experimental data as given in patent publication US11220488B2, “Crystalline polymorph of Ponesimod” (TEVA PHARMACEUTICALS INTERNATIONAL GMBH, priority 2017, dated 2022).
Converted amounts (≈) assume the structure as drawn.

Assay: Solubility measurement by dissolution apparatus, Ponesimod content by liquid chromatography
Assay type: physicochemical
Description: The solubility for Ponesimod Form T1, according to this invention, Ponesimod Form A and Form C (described in PCT application WO 2010/046835) was measured by using Dissolution apparatus (Lab India DS8000) at 37° C. Buffers at pH. 1.2, 4.5 and 6.8 were prepared as per the USP 36 Solutions/Buffer Solutions 1209. About 200 mg of Ponesimod Form T1, 150 mg of Ponesimod Forms A and C were added to the 100 mL buffer (pH 1.2, 4.5 and 6.8) in individual flasks to obtain saturated suspension and the suspension was stirred with 250 rpm for 24 hours. Suspension was observed though out stirring period. Samples were drawn at different intervals on completion of 15 mins, 30 mins, 45 mins, 1 hrs, 2 hrs, 3 hrs, 4 hrs and 24 hrs from each flask and filtered through 0.45μ PTFE filter, each solution was analyzed for Ponesimod content by liquid chromatography.

CCC/N=C1\S/C(=C\c2ccc(OC[C@H](O)CO)c(Cl)c2)C(=O)N1c1ccccc1C [Form A, (R)-5-[3-chloro-4-(2,3-dihydroxy-propoxy)-benz[Z]ylidene]-2-([Z]-propylimino)-3-o-tolyl-thiazolidin-4-one]
solubility at 45 min (pH 1.2 buffer (USP), 37 °C, pH 1.2, simulated gastric fluid, thermodynamic from solid, pH 1.2 buffer, 45 Min): 120 µg/mL (≈ 260 µM)
solubility at 60 min (pH 1.2 buffer (USP), 37 °C, pH 1.2, simulated gastric fluid, thermodynamic from solid, pH 1.2 buffer, 60 Min): 120 µg/mL (≈ 260 µM)
Solubility results at pH = 1.2 (pH 1.2 buffer, 37° C., 2 Hrs, listed as A): 0.11 mg/ml
Solubility results at pH = 1.2 (pH 1.2 buffer, 37° C., 3 Hrs, listed as A): 0.11 mg/ml
Solubility results at pH = 1.2 (pH 1.2 buffer, 37° C., 4 Hrs, listed as A): 0.11 mg/ml
Solubility results at pH = 1.2 (pH 1.2 buffer, 37° C., 30 Min, listed as A): 0.13 mg/ml

CCC/N=C1\S/C(=C\c2ccc(OC[C@H](O)CO)c(Cl)c2)C(=O)N1c1ccccc1C [Ponesimod, (R)-5-[3-chloro-4-(2,3-dihydroxy-propoxy)-benz[Z]ylidene]-2-([Z]-propylimino)-3-o-tolyl-thiazolidin-4-one]
Solubility at higher pH conditions (higher pH conditions (e.g. 4.5 and 6.8), 37° C.): not soluble

CCC/N=C1\S/C(=C\c2ccc(OC[C@H](O)CO)c(Cl)c2)C(=O)N1c1ccccc1C [Form T1, (R)-5-[3-chloro-4-(2,3-dihydroxy-propoxy)-benz[Z]ylidene]-2-([Z]-propylimino)-3-o-tolyl-thiazolidin-4-one]
Solubility compared to other known crystalline polymorphs of Ponesimod (comparison in words): higher solubility
Solubility results at pH = 1.2 (pH 1.2 buffer, 37° C., 2 Hrs, listed as T1): 0.24 mg/ml
Solubility results at pH = 1.2 (pH 1.2 buffer, 37° C., 3 Hrs, listed as T1): 0.29 mg/ml
Solubility results at pH = 1.2 (pH 1.2 buffer, 37° C., 4 Hrs, listed as T1): 0.31 mg/ml
Solubility results at pH = 1.2 (pH 1.2 buffer, 37° C., 15 Min, listed as T1): 0.07 mg/ml
Solubility results at pH = 1.2 (pH 1.2 buffer, 37° C., 24 Hrs, listed as T1): 0.40 mg/ml
Solubility results at pH = 1.2 (pH 1.2 buffer, 37° C., 30 Min, listed as T1): 0.09 mg/ml
Solubility results at pH = 1.2 (pH 1.2 buffer, 37° C., 45 Min, listed as T1): 0.12 mg/ml
Solubility results at pH = 1.2 (pH 1.2 buffer, 37° C., 60 Min, listed as T1): 0.15 mg/ml

CCC/N=C1\S/C(=C\c2ccc(OC[C@H](O)CO)c(Cl)c2)C(=O)N1c1ccccc1C [Form C, (R)-5-[3-chloro-4-(2,3-dihydroxy-propoxy)-benz[Z]ylidene]-2-([Z]-propylimino)-3-o-tolyl-thiazolidin-4-one]
Solubility results at pH = 1.2 (pH 1.2 buffer, 37° C., 2 Hrs, listed as C): 0.09 mg/ml
Solubility results at pH = 1.2 (pH 1.2 buffer, 37° C., 3 Hrs, listed as C): 0.11 mg/ml
Solubility results at pH = 1.2 (pH 1.2 buffer, 37° C., 4 Hrs, listed as C): 0.12 mg/ml
Solubility results at pH = 1.2 (pH 1.2 buffer, 37° C., 15 Min, listed as C): 0.05 mg/ml
Solubility results at pH = 1.2 (pH 1.2 buffer, 37° C., 24 Hrs, listed as C): 0.15 mg/ml
Solubility results at pH = 1.2 (pH 1.2 buffer, 37° C., 30 Min, listed as C): 0.06 mg/ml
Solubility results at pH = 1.2 (pH 1.2 buffer, 37° C., 45 Min, listed as C): 0.07 mg/ml
Solubility results at pH = 1.2 (pH 1.2 buffer, 37° C., 60 Min, listed as C): 0.08 mg/ml
